Measured values from publication PMC7408072 (Pharmaceutics, 2020).
Peptide text beside a SMILES is read from it. * marks the point of attachment. 5TAMRA = CN(C)c1ccc2c(c1)Oc1cc(N(C)C)ccc1C21OC(=O)c2cc(C(=O)*)ccc21

What was measured:
[1] = Peptide stability in serum-containing cell media; assay type: in vitro ADME, bovine; conditions: differentiation medium with 10% FBS, 37 °C, 100 µM peptide, urea/TCA-acetone protein precipitation, UPLC C18, UV 214 and 498 nm, mean ± SD, N = 2
Experimental: Samples (20 µL) were withdrawn at 0, 15, 30, 60, 120, 180, and 240 min. At room temperature, 50 µL of 6 M urea was added for 10 min to denature plasma proteins. To precipitate plasma proteins, 50 µL of 20% (w/v) trichloroacetic acid in acetone was added and the sample incubated at −20 °C for 10 min. The samples were spun down at 10,000× g for 5 min at 5 °C. The acetone phase containing the TAMRA-peptides was filtered (pore size 0.22 µm) prior to analysis by UPLC using a Waters Acquity system with a C18 BEH reverse phase column (BEH C18 column, 2.1 mm × 50 mm × 1.7 µm). Mobile phase A consisted of 95% ultrapure water and 5% acetonitrile (ACN) with 0.1% trifluoroacetic acid (TFA) and mobile phase B of 95% ACN and 5% ultrapure water with 0.1% TFA. A linear gradient was used (min/%B): 0/5%, 12/45%, 12.1/100%, 13/100%, 13.1/5%, 15/5%, with a flow rate of 0.45 mL/min over 15 min with UV detection at 214 and 498 nm. Lower limits of detection are 6.2 µM for TAMRA-NR2B9c, 0.8 µM for TAMRA-Tat, 1.6 µM for TAMRA-Tat-NR2B9c, and 1.6 µM for TAMRA-Tat-N-dimer.

[2] = tested on: bovine BCEC monolayers co-cultured with rat astrocytes; experiment: Transport and cell uptake of 3-5 kDa FITC-dextran in the presence of peptide (bovine model); assay type: cell-based; conditions: 1 mg/mL FITC-dextran with 100 µM peptide, luminal, 3 h, abluminal FITC fluorescence; N = 3, n = 3
Experimental: Transport across bovine or mouse BCEC monolayers co-cultured with rat astrocytes was carried out over 3 h at 37 °C with horizontal shaking (90 rpm). TEER was measured at room temperature using an Endohm 12 cup (World Precision Instruments, Sarasota, FL, USA) connected to a Millicell-ERS device (Millipore, Bedford, MA, USA). TEER was measured before application of the peptides and after each experiment. The bovine model had initial TEER values ranging from 771 to 1332 Ω·cm^2, whereas the mouse model had initial TEER values ranging from 136 to 217 Ω·cm^2.
FITC fluorescence was measured using a NovoStar fluorescence plate reader (BMG Labtech, Offenburg, Germany) with excitation/emission set to 494/518 nm. […] The filters were washed with PBS thrice for 5 min, mounted on glass slides under coverslips using Immu-Mount™ mounting media (Thermo Fischer Scientific, Bedford, MA, USA), and imaged using single wavelength excitation on a Leica SP2 laser-scanning confocal microscope (Leica Microsystems, Wetzlar, Germany).

| SMILES | % of the initial concentration remaining after 4 h of incubation in serum-supplemented cell media [1] | transendothelial permeation of 3-5 kDa FITC-dextran applied with peptide, compared to FITC-dextran alone [2] |
| --- | --- | --- |
| CC[C@H](C)[C@H](NC(=O)[C@H](CO)NC(=O)[C@H](CO)NC(=O)[C@H](CC(C)C)NC(=O)[C@H](CCCCN)NC(=O)c1ccc2c(c1)C(=O)OC21c2ccc(N(C)C)cc2Oc2cc(N(C)C)ccc21)C(=O)N[C@@H](CCC(=O)O)C(=O)N[C@@H](CO)C(=O)N[C@@H](CC(=O)O)C(=O)N[C@H](C(=O)O)C(C)C [TAMRA-NR2B9c] (5TAMRA-KLSSIESDV-OH) | 92.0% ± 12.6% | – |
| CC[C@H](C)[C@H](NC(=O)CCOCCOCCN(CCOCCOCCC(=O)N[C@H](C(=O)N[C@@H](CCC(=O)O)C(=O)N[C@H](C(=O)N[C@@H](CC(=O)O)C(=O)N[C@H](C(=O)O)C(C)C)[C@@H](C)O)[C@@H](C)CC)C(=O)[C@H](CCCNC(=N)N)NC(=O)[C@H](CCCNC(=N)N)NC(=O)[C@H](CCCNC(=N)N)NC(=O)[C@H](CCC(N)=O)NC(=O)[C@H](CCCNC(=N)N)NC(=O)[C@H](CCCNC(=N)N)NC(=O)[C@H](CCCCN)NC(=O)[C@H](CCCCN)NC(=O)[C@H](CCCNC(=N)N)NC(=O)CNC(=O)[C@H](Cc1ccc(O)cc1)NC(=O)c1ccc2c(c1)C(=O)OC21c2ccc(N(C)C)cc2Oc2cc(N(C)C)ccc21)C(=O)N[C@@H](CCC(=O)O)C(=O)N[C@H](C(=O)N[C@@H](CC(=O)O)C(=O)N[C@H](C(=O)O)C(C)C)[C@@H](C)O [TAMRA-Tat-N-dimer] | 88.1% ± 1.8% | did not increase |
| CN(C)c1ccc2c(c1)Oc1cc(N(C)C)ccc1C21OC(=O)c2cc(C(=O)N[C@@H](Cc3ccc(O)cc3)C(=O)NCC(=O)N[C@@H](CCCNC(=N)N)C(=O)N[C@@H](CCCCN)C(=O)N[C@@H](CCCCN)C(=O)N[C@@H](CCCNC(=N)N)C(=O)N[C@@H](CCCNC(=N)N)C(=O)N[C@@H](CCC(N)=O)C(=O)N[C@@H](CCCNC(=N)N)C(=O)N[C@@H](CCCNC(=N)N)C(=O)N[C@@H](CCCNC(=N)N)C(=O)O)ccc21 [TAMRA-Tat] | 56.0% ± 8.9% | – |
| CC[C@H](C)[C@H](NC(=O)[C@H](CO)NC(=O)[C@H](CO)NC(=O)[C@H](CC(C)C)NC(=O)[C@H](CCCCN)NC(=O)[C@H](CCCNC(=N)N)NC(=O)[C@H](CCCNC(=N)N)NC(=O)[C@H](CCCNC(=N)N)NC(=O)[C@H](CCC(N)=O)NC(=O)[C@H](CCCNC(=N)N)NC(=O)[C@H](CCCNC(=N)N)NC(=O)[C@H](CCCCN)NC(=O)[C@H](CCCCN)NC(=O)[C@H](CCCNC(=N)N)NC(=O)CNC(=O)[C@H](Cc1ccc(O)cc1)NC(=O)c1ccc2c(c1)C(=O)OC21c2ccc(N(C)C)cc2Oc2cc(N(C)C)ccc21)C(=O)N[C@@H](CCC(=O)O)C(=O)N[C@@H](CO)C(=O)N[C@@H](CC(=O)O)C(=O)N[C@H](C(=O)O)C(C)C [TAMRA-Tat-NR2B9c] (5TAMRA-YGRKKRRQRRRKLSSIESDV-OH) | 34.3% ± 1.7% | – |
